Measured values as given in patent publication US6693126B2, “Dihydroxyphenyl derivatives for hepatoprotection and treatment of liver diseases” (Choongwae Pharm. Co., Ltd., priority 2000, dated 2004).

Tests used:
[1] = system: Liver Injuries caused by Carbon Tetrachloride in Rats; assay: Inhibitory effect against liver injuries caused by carbon tetrachloride in rats; format: in vivo, Rats (SD, male); details: CCl4 i.p., serum 24 h
Description: The carbon tetrachloride model(see, Philippe letteron et al., Biochemical Pharmacology, 39, 12, 2027-2034, 1990; Tips, 10, 1989; Kyoichi Kagawa et al., Japan J. Pharmacol., 42, 19-26, 1986; K. T. Liu and P. Lesca, Chem. Biol. Interactions, 41, 39-47, 1982; Richard O. et al., J. Biological Chemistry, 236, 2, 1961) is used most generally. This model has been established based on the internal phenomena that carbon tetrachloride is converted by cytochrome P-450 to a toxic free radical trichloromethyl(CCl3.), this radical is strongly bound to a thiol group of membrane protein on microsome of liver to form a lipid radical, which is then converted to a peroxy radical in the presence of oxygen to facilitate the peroxidation reaction of membrane lipid. That is, carbon tetrachloride suppresses protein biosynthesis in the liver, induces the increase of ALT and AST values in blood, and further causes histologically the centrilobular necrosis of the liver.
The degree of liver damage in the experimental animals was determined by measuring ALT and AST values in blood(see, Biol. Pharm. Bull., 20, 4, 381-385, 1997; Toxicology and Applied Pharmacology, 95, 1-11, 1988), and the hepatoprotective activity was calculated based on the following formula(see, Planta Medica, 55, 127-132, 1989). At this time, the hepatoprotective activity can also be calculated based on the same formula by replacing ALT value with AST value. [formula]
The hepatoprotective effect of the compound of the present invention was identified according to a known procedure(see, Philippe letteron et al., Biochemical Pharmacology, 39, 12, 2027-2034, 1990), and the protocol may be described in brief as follows.
Rats(SD, male, 180˜200 g) and mice(ICR, male, 27-35 g) used in the test were allowed in a condition of temperature 22±1° C. and relative humidity 60±5%. Feed and water were provided with no restriction while light and darkness were changed at an interval of 12 hours.
[…] […] Each group included 8 test animals, and the test compound was orally administered once per animal. After 30 minutes(rat) or 1 hour(mouse) from the administration of the test compound, 10% carbon tetrachloride in corn oil solution was intraperitoneally injected in doses of 2 ml/kg in rats and 0.15 ml/kg in mice. As the control compounds, silymarin and DDB were selected.
The test animals were provided with no feed and sufficient water for 24 hours from the administration of carbon tetrachloride. […] This blood was centrifuged to obtain sera. ALT and AST values in the sera were measured using blood chemistry analyzer(Vitalab, Selectra II, Merck). The statistical significance for the test result of each group was examined based on Student's t-test, and the result was recognized as having a statistical significance when its P value is less than 5%.

[2] = system: Fulminant Liver Injuries caused by D-galactosamine/lipopolysaccharide in Mice; assay: Inhibitory effect against fulminant liver injuries caused by D-galactosamine/lipopolysaccharide in mice (survival); format: in vivo, Mice (ICR, male); details: D-galactosamine 800 mg/kg + lipopolysaccharide 10 μg/kg i.p., observed 24 hours
Description: Further, the D-galactosamine/lipopolysaccharide model(see, Chris Galanos et al., Proc. Natl. Acad. Sci. USA, 76, 11, 5939-5943, 1979; Koji Hase et al., Biol. Pharm. Bull., 20, 4, 381-385, 1997; Junichi Nagakawa et al., The Journal of Pharmacology and Experimental Therapeutics, 264, 1, 1992; Nolan J. D., Hepatology, 1, 458-465, 1981; Wendel A., Methods Enzymol., 186, 675-680, 1990) which is also used in the present invention for the identification of hepatoprotective effect is based on the phenomena that liver injuries are caused by immune responses in mouse. It has been reported that such kind of liver injuries are caused not by direct tissue lesions due to the chemicals but by secretion of tumor necrosis factor(TNF)-α, reactive oxygen, etc.(see, Hishinuma I. et al., Hepatology, 12, 1187-1191, 1990, Hase K. et al., Phytother. Res., 10, 387-392, 1996). Here, D-galactosamine supresses protein biosynthesis and as well highly increases the sensitivity of the liver cells for lipopolysaccharide by reducing uridine nucleotide.
The hepatoprotective effect of the compound of the present invention was identified according to a known procedure(see, Koji Hase et al., Biol. Pharm. Bull., 20, 4, 381-385, 1997), and the protocol may be described in brief as follows.
Mice(ICR, male, 27˜35 g) as the test animal were allowed in a condition of temperature 22±1° C. and relative humidity 60±5%. Feed and water were provided with no restriction while light and darkness were changed at an interval of 12 hours.
The compound of the present invention was suspended in a solvent corn oil, and this suspension was administered in a dose of 10 ml/kg. Each group included 10 test animals, and the test compound was orally administered once per animal. After 1 hour from the administration of the test compound, D-galactosamine and lipopolysaccharide each of which dissolved in physiological saline were intraperitoneally injected at the same time in doses of 800 mg/kg and 10 μg/kg, respectively. As the control compounds, SY-640[N-methyl-N-(3,4-methylenedioxyphenacyl)acetamide; EP0350251], silymarin and DDB were selected.
The statistical significance for the test result of each group was examined based on Student's t-test, and the result was recognized as having a statistical significance when its P value is less than 5%.

| SMILES | Inhibitory Effect against Liver Injuries (%) ALT ([1]; dose 1.9 mg/kg p.o. once) | Inhibitory Effect against Liver Injuries (%) ALT ([1]; dose 5.6 mg/kg p.o. once) | Inhibitory Effect against Liver Injuries (%) ALT ([1]; dose 16.7 mg/kg p.o. once) | Inhibitory Effect against Liver Injuries (%) ALT ([1]; dose 50 mg/kg p.o. once) | Survival Rate (%) ([2]; dose 50 mg/kg oral once) | Survival Rate (%) ([2]; dose 5.6 mg/kg oral once) |
| --- | --- | --- | --- | --- | --- | --- |
| O/N=C/c1ccc2c(c1)OCO2 [Compound 1] | 44% | 43% | 68% | 84% | 90% | – |
| COc1cc(/C=N/OCc2ccccn2)cc2c1OCO2 [Compound 13, 6-(2-((2-pyridyl)methoxy)-2-azavinyl)-4-methoxybenzo [d]1,3-dioxolane] | 53% | 49% | 59% | 67% | 90% | – |
| c1csc(-c2ccc3c(c2)OCO3)n1 [Compound 21, 2-(benzo[3,4-d]1,3-dioxolan-5-yl)-1,3-thiazole] | – | – | 63% | 67% | – | 100% |
| CC(=O)SCC(=O)c1ccc2c(c1)OCO2 [Compound 28, 1-(benzo[3,4-d]1,3-dioxolan-5-yl)-2-acetylthioethan-1-one] | – | – | 14% | 41% | – | 100% |
| COC(=O)c1cc(OC)c2c(c1-c1c(C(=O)OC)cc(OC)c3c1OCO3)OCO2 [DDB, reference compound] | – | – | – | 21% | 80% | – |
